{"source": "ChEMBL document CHEMBL1134810", "about": "“G-quadruplex DNA binding by a series of carbocyanine dyes” (Bioorg Med Chem Lett, 2001)", "key": {"[1]": {"biological_target": "DNA polymerase I, thermostable (Thermus aquaticus) (UniProt P19821)", "sequence (P19821 whole entry)": "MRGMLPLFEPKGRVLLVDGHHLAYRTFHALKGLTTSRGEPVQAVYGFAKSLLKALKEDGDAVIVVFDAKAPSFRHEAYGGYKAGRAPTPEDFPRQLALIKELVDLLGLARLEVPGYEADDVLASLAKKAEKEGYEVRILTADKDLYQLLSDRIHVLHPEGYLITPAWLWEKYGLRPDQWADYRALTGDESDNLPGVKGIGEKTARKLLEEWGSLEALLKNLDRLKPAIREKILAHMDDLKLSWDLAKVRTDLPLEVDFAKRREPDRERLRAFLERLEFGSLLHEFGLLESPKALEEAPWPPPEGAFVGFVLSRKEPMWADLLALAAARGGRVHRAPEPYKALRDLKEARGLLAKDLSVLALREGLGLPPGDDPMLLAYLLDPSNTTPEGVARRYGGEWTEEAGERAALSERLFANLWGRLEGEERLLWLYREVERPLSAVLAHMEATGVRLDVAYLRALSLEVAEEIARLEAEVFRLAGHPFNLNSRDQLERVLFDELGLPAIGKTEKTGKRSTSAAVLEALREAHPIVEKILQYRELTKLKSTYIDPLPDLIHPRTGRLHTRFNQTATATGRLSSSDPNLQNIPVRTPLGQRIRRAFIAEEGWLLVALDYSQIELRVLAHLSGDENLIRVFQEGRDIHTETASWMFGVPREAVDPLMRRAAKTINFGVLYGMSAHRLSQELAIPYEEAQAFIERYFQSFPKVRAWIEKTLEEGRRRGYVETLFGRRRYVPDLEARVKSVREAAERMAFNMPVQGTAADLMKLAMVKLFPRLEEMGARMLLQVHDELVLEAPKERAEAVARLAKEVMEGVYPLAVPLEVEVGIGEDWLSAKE", "assay": "G4'-DNA binding-dependent Taq polymerase pausing is the ratio of pause/full bands at 20 uM carbocyanine concentration relative to control; expressed as Normalized ratio of G4'-DNA stop product"}, "[2]": {"biological_target": "DNA polymerase I, thermostable (Thermus aquaticus) (UniProt P19821)", "assay": "Taq polymerase inhibition at […] concentration", "settings": "20 uM"}, "[3]": {"biological_target": "Telomerase reverse transcriptase (Homo sapiens) (UniProt O14746)", "sequence (O14746 whole entry)": "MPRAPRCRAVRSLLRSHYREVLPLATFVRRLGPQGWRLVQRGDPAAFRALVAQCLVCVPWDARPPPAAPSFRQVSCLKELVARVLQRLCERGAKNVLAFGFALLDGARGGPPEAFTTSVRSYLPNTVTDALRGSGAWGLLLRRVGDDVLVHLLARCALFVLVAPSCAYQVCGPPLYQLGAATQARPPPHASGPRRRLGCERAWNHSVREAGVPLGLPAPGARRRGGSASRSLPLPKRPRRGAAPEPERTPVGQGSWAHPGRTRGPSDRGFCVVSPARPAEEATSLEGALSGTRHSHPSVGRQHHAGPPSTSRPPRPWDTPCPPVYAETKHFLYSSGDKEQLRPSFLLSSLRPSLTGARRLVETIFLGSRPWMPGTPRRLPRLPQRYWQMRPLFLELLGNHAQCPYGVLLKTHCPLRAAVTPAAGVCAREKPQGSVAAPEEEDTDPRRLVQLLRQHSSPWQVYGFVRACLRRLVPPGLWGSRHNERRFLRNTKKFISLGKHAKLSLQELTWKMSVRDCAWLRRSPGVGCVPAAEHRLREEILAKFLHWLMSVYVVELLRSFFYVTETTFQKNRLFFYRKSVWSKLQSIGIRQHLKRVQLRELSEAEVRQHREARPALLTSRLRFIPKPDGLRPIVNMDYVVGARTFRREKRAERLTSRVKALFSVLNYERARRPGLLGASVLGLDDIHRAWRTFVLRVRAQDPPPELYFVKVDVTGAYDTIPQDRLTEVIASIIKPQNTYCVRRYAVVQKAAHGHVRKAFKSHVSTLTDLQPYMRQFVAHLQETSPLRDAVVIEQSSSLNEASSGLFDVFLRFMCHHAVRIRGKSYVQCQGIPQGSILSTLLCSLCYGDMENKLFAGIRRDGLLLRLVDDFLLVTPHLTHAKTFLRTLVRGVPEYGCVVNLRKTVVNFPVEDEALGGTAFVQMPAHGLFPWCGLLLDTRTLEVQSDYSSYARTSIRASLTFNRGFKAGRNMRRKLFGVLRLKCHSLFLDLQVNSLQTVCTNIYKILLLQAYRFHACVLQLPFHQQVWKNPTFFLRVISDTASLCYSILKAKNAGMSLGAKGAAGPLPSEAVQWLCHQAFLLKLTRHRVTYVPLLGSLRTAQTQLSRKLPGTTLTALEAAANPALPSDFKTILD", "assay": "Inhibition of human telomerase activity in S100 HeLa cell extract at […] carbocyanine concentration.", "type": "cell-free"}}, "data": [{"smiles": "CCN1/C(=C/C=C/C=C/C=C/c2sc3ccccc3[n+]2CC)Sc2ccccc21", "values": [{"measurement": "Activity", "setting": "[1]", "value": 1.1}, {"measurement": "inhibition", "setting": "[2]", "value": 1.1, "unit": "%"}, {"measurement": "inhibition", "setting": "[3]", "value": "< 10", "unit": "%"}]}, {"smiles": "CCN1/C(=C/C=C/C=C/c2oc3ccccc3[n+]2CC)Oc2ccccc21", "values": [{"measurement": "Activity", "setting": "[1]", "value": 1.6}, {"measurement": "inhibition", "setting": "[2]", "value": 27, "unit": "%"}, {"measurement": "inhibition", "setting": "[3]", "value": "< 10", "unit": "%"}]}, {"smiles": "CCN1/C(=C/C=C/c2oc3ccccc3[n+]2CC)Oc2ccccc21", "values": [{"measurement": "Activity", "setting": "[1]", "value": 0.9}, {"measurement": "inhibition", "setting": "[2]", "value": 15, "unit": "%"}, {"measurement": "inhibition", "setting": "[3]", "value": "< 10", "unit": "%"}]}, {"smiles": "CCN1/C(=C/C=C/c2sc3ccccc3[n+]2CC)Sc2ccccc21", "values": [{"measurement": "Activity", "setting": "[1]", "value": 4.4}, {"measurement": "inhibition", "setting": "[2]", "value": 14, "unit": "%"}, {"measurement": "inhibition", "setting": "[3]", "value": 35, "unit": "%"}]}, {"smiles": "CCN1C(=CC=CC=Cc2sc3ccccc3[n+]2CC)Sc2ccccc21", "values": [{"measurement": "inhibition", "setting": "[2]", "value": 91, "unit": "%"}, {"measurement": "inhibition", "setting": "[3]", "value": "< 10", "unit": "%"}]}]}
